Earlier results as cited in US11524087B2, “Microwave assisted methods and systems for surface decontamination” (priority 2019, dated 2022).

[O][Cl+][O-] [CD, chlorine dioxide]
short term exposure limit (STEL) (15-minute): 0.25 ppm | immediately damaging to life and health (IDLH) level (NIOSH): 5 ppm | permissible exposure limit (PEL) (OSHA): 0.1 ppm
